Common to all, as to format: cell-based
In one assay the target is T1, AgIR41c (Anopheles coluzzii, UniProt A0A6E8W7H2).
T1 construct: with AgIr25a and AgIr76b (co-receptors)
Put plainly: two-electrode voltage clamp, Xenopus oocytes, concentration-response. (Two-electrode voltage clamp is typically applied to oocytes expressing channels or transporters.)

A further assay deals with T2, AgIR41a (Anopheles coluzzii, UniProt A0A6E8V5R5).
T2 construct: with AgIr25a and AgIr76b (co-receptors)
T2 sequence (A0A6E8V5R5 1-637): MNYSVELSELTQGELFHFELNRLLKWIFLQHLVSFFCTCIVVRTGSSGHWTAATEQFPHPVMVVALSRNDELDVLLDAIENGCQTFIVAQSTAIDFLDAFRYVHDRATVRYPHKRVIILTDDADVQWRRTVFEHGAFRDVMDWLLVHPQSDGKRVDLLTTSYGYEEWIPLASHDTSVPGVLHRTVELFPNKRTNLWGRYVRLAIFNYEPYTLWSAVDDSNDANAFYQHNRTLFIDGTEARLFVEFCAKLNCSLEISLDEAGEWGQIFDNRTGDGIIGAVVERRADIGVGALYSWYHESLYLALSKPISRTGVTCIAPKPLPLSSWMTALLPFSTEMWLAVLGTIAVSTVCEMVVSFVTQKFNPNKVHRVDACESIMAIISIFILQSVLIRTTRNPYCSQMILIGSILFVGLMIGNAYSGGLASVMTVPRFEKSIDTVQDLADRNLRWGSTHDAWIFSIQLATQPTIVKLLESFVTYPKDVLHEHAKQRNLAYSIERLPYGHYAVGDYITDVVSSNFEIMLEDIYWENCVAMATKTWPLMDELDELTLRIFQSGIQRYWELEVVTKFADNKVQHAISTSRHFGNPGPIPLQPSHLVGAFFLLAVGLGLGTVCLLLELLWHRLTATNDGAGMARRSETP
T2 sequence (A0A1S4H3H9 28-946 partner): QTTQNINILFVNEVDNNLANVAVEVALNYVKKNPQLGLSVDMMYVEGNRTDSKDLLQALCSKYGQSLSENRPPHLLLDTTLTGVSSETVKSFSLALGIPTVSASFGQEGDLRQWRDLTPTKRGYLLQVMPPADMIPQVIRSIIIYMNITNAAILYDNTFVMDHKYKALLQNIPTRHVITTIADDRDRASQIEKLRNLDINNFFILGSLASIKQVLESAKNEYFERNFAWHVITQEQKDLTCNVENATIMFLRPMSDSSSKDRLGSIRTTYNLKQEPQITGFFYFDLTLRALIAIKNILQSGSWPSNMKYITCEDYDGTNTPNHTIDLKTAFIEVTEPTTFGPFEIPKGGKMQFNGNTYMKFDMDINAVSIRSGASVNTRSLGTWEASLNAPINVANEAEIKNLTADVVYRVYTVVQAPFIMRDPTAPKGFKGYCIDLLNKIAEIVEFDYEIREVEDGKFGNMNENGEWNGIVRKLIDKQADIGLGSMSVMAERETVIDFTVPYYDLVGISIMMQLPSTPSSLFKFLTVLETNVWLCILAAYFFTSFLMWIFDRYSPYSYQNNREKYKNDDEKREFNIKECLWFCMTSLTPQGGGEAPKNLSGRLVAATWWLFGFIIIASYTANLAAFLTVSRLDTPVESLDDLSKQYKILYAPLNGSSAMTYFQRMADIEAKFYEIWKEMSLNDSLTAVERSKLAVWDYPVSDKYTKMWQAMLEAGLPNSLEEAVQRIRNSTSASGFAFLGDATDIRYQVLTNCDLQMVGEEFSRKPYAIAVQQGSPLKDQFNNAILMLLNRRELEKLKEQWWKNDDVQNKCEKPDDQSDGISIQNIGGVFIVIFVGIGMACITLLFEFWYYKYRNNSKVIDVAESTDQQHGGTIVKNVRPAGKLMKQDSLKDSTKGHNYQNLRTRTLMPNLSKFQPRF
T2 sequence (A0A6E8W6Y5 1-657 partner): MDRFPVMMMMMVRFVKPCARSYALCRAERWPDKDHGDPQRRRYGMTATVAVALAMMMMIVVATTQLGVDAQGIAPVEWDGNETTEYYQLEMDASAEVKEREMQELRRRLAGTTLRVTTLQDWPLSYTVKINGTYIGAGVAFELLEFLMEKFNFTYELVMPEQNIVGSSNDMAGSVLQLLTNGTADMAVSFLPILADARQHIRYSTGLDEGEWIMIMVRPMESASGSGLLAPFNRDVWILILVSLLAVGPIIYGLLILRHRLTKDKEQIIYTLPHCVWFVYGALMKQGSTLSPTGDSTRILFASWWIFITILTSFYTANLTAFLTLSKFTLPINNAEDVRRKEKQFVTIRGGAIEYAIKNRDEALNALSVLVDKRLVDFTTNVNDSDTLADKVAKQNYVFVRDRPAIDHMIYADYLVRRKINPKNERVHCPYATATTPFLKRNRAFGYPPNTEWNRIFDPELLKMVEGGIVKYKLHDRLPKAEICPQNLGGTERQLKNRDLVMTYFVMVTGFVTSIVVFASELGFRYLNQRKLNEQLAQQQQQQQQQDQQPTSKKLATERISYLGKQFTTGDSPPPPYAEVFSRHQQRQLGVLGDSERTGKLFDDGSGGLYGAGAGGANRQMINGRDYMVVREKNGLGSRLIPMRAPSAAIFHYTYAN
Described as above.

For assay [1], the target named is T3, AgIR75k (Anopheles coluzzii, UniProt A0A6E8VT06).
T3 construct: with AgIr8a (co-receptor)
T3 sequence (A0A6E8VT06 26-675): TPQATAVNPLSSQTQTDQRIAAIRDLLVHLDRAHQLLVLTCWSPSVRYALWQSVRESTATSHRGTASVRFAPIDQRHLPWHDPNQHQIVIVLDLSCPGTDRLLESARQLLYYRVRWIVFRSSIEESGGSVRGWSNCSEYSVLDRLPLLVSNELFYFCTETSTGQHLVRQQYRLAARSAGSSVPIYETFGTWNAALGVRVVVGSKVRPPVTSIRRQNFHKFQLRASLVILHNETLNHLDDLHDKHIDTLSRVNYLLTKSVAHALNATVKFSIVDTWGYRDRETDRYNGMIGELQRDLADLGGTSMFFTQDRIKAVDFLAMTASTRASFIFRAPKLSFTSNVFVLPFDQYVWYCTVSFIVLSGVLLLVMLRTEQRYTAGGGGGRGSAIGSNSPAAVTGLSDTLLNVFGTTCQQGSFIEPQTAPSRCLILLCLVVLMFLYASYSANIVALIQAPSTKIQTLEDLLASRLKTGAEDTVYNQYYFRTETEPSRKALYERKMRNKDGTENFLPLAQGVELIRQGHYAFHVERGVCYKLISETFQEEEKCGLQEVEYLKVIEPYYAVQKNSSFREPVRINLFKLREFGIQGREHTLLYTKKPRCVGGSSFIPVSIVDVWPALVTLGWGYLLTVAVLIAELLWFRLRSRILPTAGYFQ
T3 sequence (A0A6E8W0A6 1-828 partner): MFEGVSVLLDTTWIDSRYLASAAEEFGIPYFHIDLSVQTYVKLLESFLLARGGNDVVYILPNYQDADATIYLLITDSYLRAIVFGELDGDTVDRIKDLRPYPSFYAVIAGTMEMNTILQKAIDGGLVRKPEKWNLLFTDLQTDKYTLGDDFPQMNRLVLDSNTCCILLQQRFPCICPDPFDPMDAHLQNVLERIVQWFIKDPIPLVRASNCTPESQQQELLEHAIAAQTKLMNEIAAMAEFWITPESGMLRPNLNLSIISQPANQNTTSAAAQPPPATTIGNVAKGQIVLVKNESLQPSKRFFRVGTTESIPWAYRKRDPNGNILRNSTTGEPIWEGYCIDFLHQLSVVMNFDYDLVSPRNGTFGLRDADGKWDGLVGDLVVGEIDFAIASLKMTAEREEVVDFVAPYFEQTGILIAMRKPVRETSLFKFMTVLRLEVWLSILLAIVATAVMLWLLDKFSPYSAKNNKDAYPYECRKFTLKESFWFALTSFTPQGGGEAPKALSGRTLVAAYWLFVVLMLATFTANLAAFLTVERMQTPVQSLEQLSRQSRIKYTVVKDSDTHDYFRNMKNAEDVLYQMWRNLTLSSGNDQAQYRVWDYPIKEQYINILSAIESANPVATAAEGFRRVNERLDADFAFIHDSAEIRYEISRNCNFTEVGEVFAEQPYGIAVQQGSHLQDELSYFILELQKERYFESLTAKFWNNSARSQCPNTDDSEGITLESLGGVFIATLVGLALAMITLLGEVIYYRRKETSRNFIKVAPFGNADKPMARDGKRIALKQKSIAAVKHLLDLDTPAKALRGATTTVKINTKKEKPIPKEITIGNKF
The description is as above.

Assay [2] has as its target T3, AgIR75k. Nature of the assay: two-electrode voltage clamp, Xenopus oocytes, […] single concentration.

In general, EC50 refers to the concentration at which the effect is half-maximal. Read a high EC50 as weaker potency.

T1 sequence (A0A6E8W7H2 1-669, one chain of several): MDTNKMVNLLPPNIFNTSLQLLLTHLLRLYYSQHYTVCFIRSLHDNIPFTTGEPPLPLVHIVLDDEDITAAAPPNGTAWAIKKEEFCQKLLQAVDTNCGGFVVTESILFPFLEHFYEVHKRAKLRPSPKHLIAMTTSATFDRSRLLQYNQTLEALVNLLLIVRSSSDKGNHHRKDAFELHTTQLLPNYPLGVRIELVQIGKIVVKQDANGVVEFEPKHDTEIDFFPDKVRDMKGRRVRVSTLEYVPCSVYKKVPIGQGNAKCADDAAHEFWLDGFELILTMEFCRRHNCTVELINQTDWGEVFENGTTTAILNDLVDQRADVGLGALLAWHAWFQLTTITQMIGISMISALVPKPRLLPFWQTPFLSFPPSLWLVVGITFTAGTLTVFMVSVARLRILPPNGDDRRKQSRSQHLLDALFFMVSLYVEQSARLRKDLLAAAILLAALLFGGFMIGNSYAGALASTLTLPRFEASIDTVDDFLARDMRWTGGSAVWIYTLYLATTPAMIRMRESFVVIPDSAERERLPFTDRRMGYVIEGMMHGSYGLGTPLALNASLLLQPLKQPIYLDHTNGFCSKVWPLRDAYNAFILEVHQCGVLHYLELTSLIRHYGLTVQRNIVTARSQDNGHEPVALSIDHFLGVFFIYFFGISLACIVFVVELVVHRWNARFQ

For the molecule `C1CCNC1` [pyrrolidine], the EC50 at AgIR41c stood at 3.4 µM; on AgIR41a, 110 µM.

`CCCCCCCCC(=O)O` [nonanoic acid] returned an EC50 on AgIR75k [1] of 35 µM.

In the case of `CCCCCCCC(=O)O` [octanoic acid], the “two-electrode voltage clamp, Xenopus oocytes, 10^-4 M single concentration” value on AgIR75k [2] was “octanoic and nonanoic acids elicited the greatest inward currents”.
